Columns and labels:
[1] = system: human elastin promoter linked to a luciferase reporter gene construct in human skin fibroblasts; assay: human elastin promoter/luciferase assay (UV-induced promoter induction); format: cell-based
Procedure: Thus, gluconolactone protects against UV-induced gene induction in cells containing the human elastin promoter/luciferase construct. […] The ED50 for cell cultures with tempol but not receiving any ultraviolet radiaiton was approximately 100 mM.
Gluconolactone was prepared in PBS.
4-Hydroxy-tempo (tempol) was prepared in PBS.

[2] = system: human skin fibroblasts containing the human elastin promoter linked to a luciferase reporter gene construct; assay: Neutral Red Cytotoxicity/Phototoxicity Assay
Procedure: Immortalized human skin fibroblasts containing the human elastin promoter linked to a luciferase reporter gene construct were seeded in 96-well plates at a density of 7,500 cells per well (doubling time ˜30 hours). Cells were grown in 75 cm^2 tissue culture flasks in MEM (without phenol red) supplemented with 10% FBS, 25 mM HEPES, 2 mM l-glutamine, 1% nonessential amino acids, 50 μg/mL Gentamycin, and 5 μg/mL Zeocin. Cell cultures were incubated in a 37° C. incubator (containing 5% CO2) when not being manipulated or irradiated. Cell cultures were washed with Phosphate Buffered Saline (PBS) with Ca^++ and Mg^++ when media or compounds were removed and before ultraviolet radiation (UVR).
Gluconolactone was prepared in PBS. Concentrations of 0.5, 1.0, 2.5, 5.0, 7.5, 10.0, 12.5, and 25% (w/v) were prepared and adjusted to a pH of 7.2. Gluconolactone was incubated 15 minutes prior to and in contact with cell cultures during UV-irradiation.
4-Hydroxy-tempo (tempol) was prepared in PBS. Concentrations of tempol of 10, 25, 50, 62.5, 100, 125, 250, and 500 mM were prepared and adjusted to a pH of 7.2. Tempol was incubated 15 minutes prior to and in contact with cell cultures during UV-irradiation.
Cell cultures were UV-irradiated with Westinghouse 40-Watt fluorescent sunlamps (FS-40 lamps) with doses of either 2 or 5 mJ/cm^2, based on a PMA2100 radiometer (Solar light Company, Philadelphia, Pa.) equipped with a PMA2101 erythema weighted detector.
Fifteen hours after UV-irradiation with the FS-40 lamps, cell cultures were washed with PBS and Neutral Red Medium (Neutral Red dye+supplemented MEM) was added for a 3 hours (in 37° C. incubators). After the incubation period, cells are washed with PBS and the Neutral Red Desorb solution (50% Ethanol, 49% distilled water, 1% Glacial Acetic Acid) was added. Plates are shaken for 10 minutes at 500 rpm and then the absorption was read at 540 nm using THERMOmax plate reader and SOFTmax PRO software.

Row | Compound | protection against UV-induced promoter induction ([1]; human elastin promoter/luciferase fibroblasts, UV-irradiated) | phototoxicity or cytotoxicity [2] | ED50 for phototoxicity ([2]; human, pH 7.2) | protection against toxicity ([1]; human elastin promoter/luciferase assay, increasing ultraviolet doses) | protection against toxicity ([2]; neutral red assay, increasing ultraviolet doses) | ED50 for cell cultures ([2]; not receiving any ultraviolet radiation) | ED50 for cell cultures ([2]; ultraviolet radiation dose 2 mJ/cm^2) | ED50 for cell cultures ([2]; ultraviolet radiation dose 5 mJ/cm^2) [mM]
1 | O=C1O[C@H](CO)[C@@H](O)[C@H](O)[C@H]1O [Glucolactone, Gluconolactone] | approximately 50% | did not demonstrate significant phototoxicity or cytotoxicity | approximately 102 g/L | – | – | – | – | –
2 | CC1(C)CC(O)CC(C)(C)N1[O] [tempol, 4-Hydroxy-tempo] | – | – | – | over 50% | over 50% | approximately 100 mM | approximately 150 mM | ~250
